Laboratory results taken from a melting point compilation (Tetko et al.; mined from patent text by program, amines drawn as free bases though some values may be those of a salt).

melting point [°C]	SMILES
175 to 177	COc1cc(C2=CCN(S(=O)(=O)CC(=O)NO)CC2)ccc1-c1ccccc1
159 to 160	NC(=O)N(O)CCNC(=O)c1cccc(Oc2ccccn2)c1
183 to 184	CCC1(CC)OC(c2ccc(S(C)(=O)=O)cc2)=C(c2ccc(OC)c(F)c2)C1=O
54 to 56	CCOC(=O)NCCOc1ccc(Oc2cc(F)cc(F)c2)cc1
132 to 134	COc1ccc(C(=O)Cc2ccc3ccccc3c2)cc1
88 to 90	CCn1c(COCc2ccccc2)nc(C(C)C)c1Sc1cccc(F)c1
42 to 43	COC(=O)C(=O)c1ccc(OCCCc2ccc(F)cc2)cc1
> 250	NCCc1ccc(N2CCN(c3ccc(CC(=O)O)cc3)C2=O)cc1
43 to 45	ClCc1nc(-c2ccccc2)c(-c2ccccc2)o1
190 to 191	O=C(O)CCc1cc(OCCCc2cn(-c3ccc(C(F)(F)F)cn3)nc2C2CCCCC2)nn1C1CCCCC1
170 to 172	CC(=O)Nc1cc(C(C)(C)C)cc(OCc2ccccc2)c1C
85 to 90	CCOC(=O)CN(Cc1cc(F)ccc1F)S(=O)(=O)c1ccc(N2CCC(NC[C@H](O)c3ccc(O)c(NS(C)(=O)=O)c3)CC2)cc1
188 to 190	Cc1ccc(S(=O)(=O)N2CCn3c(c(C(N)=O)c(Cl)c3-c3ccccc3)C2)cc1
217 to 218	CCc1cc2c(-c3ccccc3OC)c(NC(=O)Nc3cc(C)c(OC(C)=O)c(C)c3)cnc2s1
144 to 146	O=c1c(Cc2ccncc2)c(-c2ccc(F)cc2)[nH]c2ccccc12
200 to 202	O=C(O)Cc1nn(CC(=O)Nc2cc(C(F)(F)F)ccc2Br)c(=O)c2ccccc12
72 to 75	C=CCOc1cccc(-c2n[nH]c(-c3ccccc3C)n2)c1
174 to 175	O=C1C(=O)c2ccccc2C2=C1SCC1(CCN(CC(O)COc3ccc(F)cc3)CC1)O2 (configuration not stated)

melting point [°C]	SMILES
184 to 185	CCCc1nc2c(n1Cc1ccc(-c3ccccc3-c3nnn[nH]3)cc1)C(C(=O)OCC)N(C(C)=O)CC2 (configuration not stated)
200 to 202	Cc1ccc(C(=O)Nc2cccc(C(F)(F)F)c2)cc1-c1ccc2scnc2c1
224	CN(C)CCNS(=O)(=O)c1cccc(NC(=O)c2cnn3c(C(F)(F)F)cc(-c4ccc(C(F)(F)F)cc4)nc23)c1
262 to 263	O=C(NCc1ccncc1)c1cc(-n2cnn(Cc3ccc(F)cc3)c2=O)n[nH]1
176 to 178	CCc1c(-c2ccc(O)cc2)c2c(CN(C)C)cc3cccc1n32
125 to 126	CCN(CC)C(=O)COc1ccn2nc(-c3ccccc3)c(-c3ccc(=O)n(C(C)C)n3)c2c1
144 to 146	CC(CCCc1cccnc1)NC(=O)C(O)c1ccccc1 (configuration not stated)
62 to 63	C(=C\C1CCCCC1)/c1nc(COc2ccc(CCCn3ccnc3)cc2)co1
145 to 146	COc1cccc(-c2ccc3cc(OC)ccc3c2Oc2ccc(C=O)cc2)c1
162 to 163	O=C(O)CCc1cn(Cc2ccc(OCc3ccc(-c4ccccc4)cn3)cc2)nc1-c1ccc(F)cc1
> 250	O=C1NC(=O)C(=Cc2ccc3c(c2)c2ccccc2n3Cc2ccc(-c3ccccc3)cc2)S1
122 to 123	CC(Oc1ccc(COc2ccc(Cl)cc2Cl)cc1)C(=O)O (configuration not stated)
253 to 254	N#Cc1c(-c2cccc(C(=O)N3CCOCC3)c2)cc(-c2ccccc2O)nc1NC(=O)c1cccs1
237 to 239	NS(=O)(=O)c1ccc(-c2cnn(Cc3ccc(F)cc3)c(=O)c2-c2ccc(F)cc2)cc1
86	CCC1CCCCN1C(=O)c1cc2ccccc2c(-c2ccccc2)n1 (configuration not stated)
152 to 154	CCOC(=O)NN(CCO)c1ccc(-c2ccc(Cl)cc2)nn1
257 to 259	Cc1ccc(C(=O)NC(NC(=O)Nc2ccccc2F)C(Cl)(Cl)Cl)cc1 (configuration not stated)
177 to 178	CCOCc1nc2c(N)nc3ccccc3c2n1CCCCCS(=O)(=O)NCc1ccc(OC)cc1

Further lines, the compound ahead of its results:

SMILES	melting point [°C]
CC(=O)N1CC(CCN2CC=C(c3c[nH]c4cc(Cl)ccc34)CC2)c2cc(C)ccc21 (configuration not stated)	179 to 181
COC1=CC[C@H]2[C@@H]3CCc4cc(OC)ccc4[C@H]3CC[C@]12C	90.5 to 93
Cc1nc2c3c(c(CO)cn2c1C)CCC(c1ccccc1)C3 (configuration not stated)	290 to 292
C[C@@H]1CCN(C(=O)OC(C)(C)C)C[C@@H]1N(C)C(=O)OC(C)(C)C	118
COc1cc(N)c(Cl)cc1C(=O)NC1CCN(C(=O)OC(C)(C)C)CC1F (configuration not stated)	198 to 199
COc1nc(C)n2nc(SCc3ccccc3)nc2c1Cl	115 to 116
CNC(=O)[C@@H]1C[C@@H](OC(C)(C)C)CN1S(=O)(=O)c1ccc(Cl)c(CBr)c1Cl	73
CC(C)(C)c1cc(C(=O)Oc2ccc(C(=O)O)cc2)cc(C(C)(C)C)c1O	223 to 224
Cn1cc(S(C)=O)c(=O)c2ccc(Br)cc21 (configuration not stated)	248 to 249
Nc1nc(O)c2c(n1)NCC(CCc1nc(C(=O)N[C@@H](CCC(=O)O)C(=O)O)cs1)C2 (some centres not stated)	210 to 212
Cc1c(C)c2c(c(C)c1NC(=O)c1ccc3c(c1)OCO3)C(c1ccc(C(C)C)cc1)C(C)(C)O2 (configuration not stated)	165 to 167
CCCCCCSCCSc1nc2nc(C)cc(O)n2n1	126
O=C1CCCn2c1cc1ccccc12	138 to 140
N#Cc1cnn2cccc2c1Nc1ccccc1	164
COc1ccc(C(O)CCS(=O)(=O)c2ccc(S(N)(=O)=O)s2)cc1 (configuration not stated)	129 to 130
CC(C)(CO)c1ccc(Br)cc1	46.5 to 48
CN1CCN(c2c(F)c(F)c([N+](=O)[O-])c(NC3CC3)c2F)CC1	75
Cc1cn2c(N)c(Cl)cc(C(=O)NCC3CCN(C(C)C(=O)C(C)(C)C)CC3)c2n1 (configuration not stated)	207
Cc1cc2c(c3oc4ccccc4c(=O)c13)CC(C(=O)O)O2 (configuration not stated)	231 to 234
COC(=O)c1cc(Cl)c(Cl)c(-c2cc(C)no2)c1C	76 to 77
CC(=O)N[C@@H](CSC(C)=O)C(=O)NCCSC(=O)C(C)C	115 to 117

SMILES	melting point [°C]
COc1cccc2c1CCC(n1cc[nH]c1=S)C2 (configuration not stated)	233 to 235
CC(C)(C)OC(=O)NCC(O)(CNCC(O)C(Cc1ccccc1)NC(=O)OC(C)(C)C)Cc1ccccc1 (configuration not stated)	65 to 67
Nc1cc2c(cc1[N+](=O)[O-])CC(CCO)C2 (configuration not stated)	89 to 91
CNc1cc(Cl)cc(Cl)c1[N+](=O)[O-]	120
CC(C)(C)OC(=O)NC[C@H]1CC[C@H](COS(C)(=O)=O)CC1	105 to 107
NC[C@@H]1CNc2cccc(-c3ccc(Cl)cc3Cl)c2O1	163
CNC(=O)CC1CN=C(c2cc3cc(Oc4ccc(CS(C)(=O)=O)nc4)cc(OC4CCOCC4)c3[nH]2)S1 (configuration not stated)	157 to 158
NC(=O)C1(Nc2ccccc2)CCN(C2CCC(c3ccc(F)cc3)(c3ccc(F)cc3)CC2)CC1	224 to 227
S=P12SP3(=S)SP(=S)(S1)SP(=S)(S2)S3	165 to 166
O=[N+]([O-])c1cc(C(F)(F)F)ccc1NC1CCCCC1	80.1
COC1C=C(C)C2(OC(=O)c3ccc([N+](=O)[O-])cc3)CC(C)(C)C1O2 (configuration not stated)	95 to 95.5
COc1nc2ccccc2nc1NC(=S)N1CCN(c2cc(F)cc(F)c2)CC1	280 to 281
CCCCCCCCCCCCCCC(CCC(=O)OCc1ccccc1)C(=O)O (configuration not stated)	62 to 63
CCOC(=O)C(=O)N1CCN(c2ccccc2C(C)(C)C)CC1	95 to 98
CC(/C=C/CC(C)c1cc(C(C)(C)C)cc(C(C)(C)C)c1)=C\C(=O)O (configuration not stated)	127 to 128
CC(=O)NC[C@H]1CN(c2ccc(C3CCN(C(=O)CO)CC3)cc2)C(=O)O1	155 to 157
Cc1cn2nc(Cl)ccc2n1	131
COc1ccc(-c2csc(C)n2)cc1OC1CC2CCC1C2 (configuration not stated)	81 to 82
CCOC(=O)c1cnc(N)nc1O	280
Cc1cc(SC2CC(=O)N(C)C2=O)cc(C(C)(C)C)c1N (configuration not stated)	92 to 94
COC(=O)c1ccc2sc(/C=C/c3cccc(N)c3)nc2c1	165 to 167

SMILES	melting point [°C]
Cc1sc2c(c1C)C(c1ccc(Cl)cc1)=NC(CC(=O)Nc1ncccn1)c1nnc(C)n1-2 (configuration not stated)	251 to 253
CC(=O)NCCNC(=O)c1ccc(Cl)cc1	222 to 224
COC(=O)N[C@@H](Cc1ccccc1)[C@H](O)CN1C[C@H]2CCCC[C@H]2C[C@H]1C(=O)NOC(C)(C)C	194 to 195
COC[C@H]1CN(c2coc3cc(C(=O)OC)ccc23)C(=O)O1	116
O=C(Nc1cccc(-c2nnn[nH]2)c1)NC1N=C(c2ccccc2F)c2cccc(Cl)c2N(CC(=O)N2CC3CCC(CC3)C2)C1=O (configuration not stated)	172 to 180
C=CCn1cc(C(=O)O)c(=O)c2cc(F)c(N3CCOCC3)cc21	210
CNc1cc(OC)c(OC)cc1C(C)=O	121 to 124
CC(=O)N1Cc2c(-c3nc(C4CC4)no3)ncn2-c2ccccc21	202
Cc1csc2[nH]c(=O)oc(=O)c12	220
CCOC(=O)C=Cc1cc(Cl)ccc1Cl	34 to 36
CC(C)(C)OC(=O)/C(=C/C1CCCCC1)C(=O)c1ccccc1O	62 to 65
NC(=O)c1nccn1C1Cc2cc(-n3ccnc3)ccc2C1=O (configuration not stated)	140
CC(C)N1C(CN2CCOCC2)=Cc2cc(S(N)(=O)=O)sc2S1(=O)=O	196 to 198
CCOC(=O)c1sc(N2CCN(Cc3ccc(C(F)(F)F)cc3)C2=O)nc1C	126 to 127
COc1ccc(N2CCN(n3ccnc3)CC2)cc1	159
Cc1nnc2n1-c1sc(C#CCCN3C(=O)c4cccc5cccc(c45)C3=O)cc1C(c1ccccc1Cl)=NC2	175 to 179
CNC(=O)c1cccc(Nc2nc(Nc3ccc4c(c3)CCCC(=O)N4C)ncc2Cl)c1	215 to 217
CNC(=O)Cc1c(C(=O)c2cc(C)ccn2)[nH]c2cc(Cl)ccc12	231
O=C(c1ccc(Cl)cc1)c1c(N2C(=O)c3ccccc3C2=O)sc(Br)c1CN(C1CCCCC1)C1CCCCC1	173 to 175
